# Results published in publication PMC3366916, “Characterization of a Conserved Interaction between DNA Glycosylase and ParA in Mycobacterium smegmatis and M. tuberculosis” (PLoS ONE, 2012).
# Tests used:
# MsTAG (Ms5082) = target: T1, MsTAG (Ms5082) (Mycolicibacterium smegmatis, UniProt A0R2E4); test: malachite green phosphate release ATPase assay; format: biochemical; conditions: 200 uM ATP, 150 nM protein, 1 mM MgCl2, 50 mM HEPES pH 8.0, 37 C
# T1 construct: gene tag; recombinant, E. coli BL21, pET28a (6xHis) or pGEX-4T-1 (GST)
# T1 sequence (A0R2E4 1-209): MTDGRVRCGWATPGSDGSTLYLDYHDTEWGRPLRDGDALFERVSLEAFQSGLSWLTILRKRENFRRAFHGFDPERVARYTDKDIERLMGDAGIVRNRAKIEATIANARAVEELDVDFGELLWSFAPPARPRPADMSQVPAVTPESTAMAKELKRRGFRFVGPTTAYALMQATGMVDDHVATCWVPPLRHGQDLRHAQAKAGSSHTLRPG
# MsParA (Ms6939) = target: T2, MsParA (Ms6939) (Mycolicibacterium smegmatis, UniProt A0R7J4); test: malachite green phosphate release ATPase assay; format: biochemical; conditions: 200 uM ATP, 150 nM protein, 1 mM MgCl2, 50 mM HEPES pH 8.0, 37 C
# T2 construct: gene MSMEG_6939; recombinant, E. coli BL21, pET28a (6xHis) or pGEX-4T-1 (GST)
# T2 sequence (A0R7J4 1-323): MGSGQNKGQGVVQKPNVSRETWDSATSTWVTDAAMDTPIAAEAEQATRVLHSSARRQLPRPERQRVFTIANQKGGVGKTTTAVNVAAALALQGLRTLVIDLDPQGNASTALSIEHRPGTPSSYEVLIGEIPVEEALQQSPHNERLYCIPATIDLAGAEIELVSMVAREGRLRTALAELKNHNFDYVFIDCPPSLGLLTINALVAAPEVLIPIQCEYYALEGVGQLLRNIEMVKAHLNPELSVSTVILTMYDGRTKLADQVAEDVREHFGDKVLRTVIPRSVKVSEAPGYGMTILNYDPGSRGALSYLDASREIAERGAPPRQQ
# MtTAG (Rv1210) = target: T3, MtTAG (Rv1210) (Mycobacterium tuberculosis, UniProt O05311)
# T3 construct: gene tagA
# T3 sequence (O05311 entry or part of it): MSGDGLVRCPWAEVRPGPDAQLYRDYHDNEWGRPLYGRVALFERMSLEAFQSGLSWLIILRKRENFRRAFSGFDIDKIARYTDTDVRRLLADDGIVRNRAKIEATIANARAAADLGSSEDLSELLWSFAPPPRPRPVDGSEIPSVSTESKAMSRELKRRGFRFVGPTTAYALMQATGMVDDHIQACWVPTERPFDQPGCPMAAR
compound,measurement,setting,value
Nc1ncnc2c1ncn2[C@@H]1O[C@H](COP(=O)(O)OP(=O)(O)OP(=O)(O)O)[C@@H](O)[C@H]1O [ATP],malachite green phosphate release ATPase assay,MsTAG (Ms5082),MsTAG was found to have stronger ATPase activity than MsParA under the same conditions
same,malachite green phosphate release ATPase assay,MsParA (Ms6939),verifying that MsParA had ATPase activity (Fig. 5A)
same,malachite green phosphate release ATPase assay,MtTAG (Rv1210),"MtTAG had an obvious ATPase activity but Rv1210-K78A, its mutant variant, did not"
